Experimental data taken from PubChem BioAssay AID2060910 (Molecular Pharmacology Branch, DTP, NCI, 2025).

Test system: 242566-281-R-J2-PDC complex spheroid viability
Assay: Anticancer human tumor 242566-281-R-J2-PDC patient-derived pancreatic carcinoma cell line growth inhibition [RAS]
Details: for IC50: curve of first compound; for viability, T/C: stronger effect = lower value
Procedure, shortened: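 Tumour cells grown as complex spheroids with HUVEC endothelial cells and mesenchymal stem cells, treated with RAS pathway inhibitor combinations. Each agent spans half-log steps from near clinical Cmax, or 10 microM where Cmax is unknown.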

[1] = second compound 0.000949 µM, first compound 0.000949 µM
[2] = second compound 0.000949 µM, first compound 0.003 µM
[3] = second compound 0.000949 µM, first compound 0.00949 µM
[4] = second compound 0.000949 µM, first compound 0.03 µM
[5] = second compound 0.000949 µM, first compound 0.0949 µM
[6] = second compound 0.000949 µM, first compound 0.3 µM
[7] = second compound 0.003 µM, first compound 0.000949 µM
[8] = second compound 0.003 µM, first compound 0.003 µM
[9] = second compound 0.003 µM, first compound 0.00949 µM
[10] = second compound 0.003 µM, first compound 0.03 µM
[11] = second compound 0.003 µM, first compound 0.0949 µM
[12] = second compound 0.003 µM, first compound 0.3 µM
[13] = second compound 0.00949 µM, first compound 0.000949 µM
[14] = second compound 0.00949 µM, first compound 0.003 µM
[15] = second compound 0.00949 µM, first compound 0.00949 µM
[16] = second compound 0.00949 µM, first compound 0.03 µM
[17] = second compound 0.00949 µM, first compound 0.0949 µM
[18] = second compound 0.00949 µM, first compound 0.3 µM
[19] = second compound 0.03 µM, first compound 0.000949 µM
[20] = second compound 0.03 µM, first compound 0.003 µM
[21] = second compound 0.03 µM, first compound 0.00949 µM
[22] = second compound 0.03 µM, first compound 0.03 µM
[23] = second compound 0.03 µM, first compound 0.0949 µM
[24] = second compound 0.03 µM, first compound 0.3 µM
[25] = second compound 0.0949 µM, first compound 0.000949 µM
[26] = second compound 0.0949 µM, first compound 0.003 µM
[27] = second compound 0.0949 µM, first compound 0.00949 µM
[28] = second compound 0.0949 µM, first compound 0.03 µM
[29] = second compound 0.0949 µM, first compound 0.0949 µM
[30] = second compound 0.0949 µM, first compound 0.3 µM
[31] = second compound 0.3 µM, first compound 0.000949 µM
[32] = second compound 0.3 µM, first compound 0.003 µM
[33] = second compound 0.3 µM, first compound 0.00949 µM
[34] = second compound 0.3 µM, first compound 0.03 µM
[35] = second compound 0.3 µM, first compound 0.0949 µM
[36] = second compound 0.3 µM, first compound 0.3 µM
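Note: spheroids exposed to compound for 7 days before readout.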
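Throughout, for viability, T/C: 100% = DMSO vehicle control wells.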

C=CC(=O)N1CCN(c2nc(OCC3CCCN3C)nc3c(F)c(-c4nc(N)cc(C)c4C(F)(F)F)c(Cl)cc23)C(C)C1 (stereo unspecified) + CCn1c(-c2cccnc2C(C)OC)c2c3cc(ccc31)N1CCOC(CC(NC(=O)C(C(C)C)N(C)C(=O)C3(F)CCN(C(=O)C#CC(C)(C)N(C)C)CC3)C(=O)N3CCCC(N3)C(=O)OCC(C)(C)C2)C1
IC50 (second compound 0.000949 µM): > 1000 nM
IC50 (second compound 0.003 µM): > 1000 nM
IC50 (second compound 0.00949 µM): > 1000 nM
IC50 (second compound 0.03 µM): > 1000 nM
IC50 (second compound 0.0949 µM): > 1000 nM
IC50 (second compound 0.3 µM): > 1000 nM
viability, T/C (second compound 0.000949 µM, first compound 0.00316 µM): 111%
viability, T/C (second compound 0.000949 µM, first compound 0.01 µM): 98.5%
viability, T/C (second compound 0.000949 µM, first compound 0.0316 µM): 88.2%
viability, T/C (second compound 0.000949 µM, first compound 0.1 µM): 113%
viability, T/C (second compound 0.000949 µM, first compound 0.316 µM): 93.8%
viability, T/C (second compound 0.000949 µM, first compound 1 µM): 79.2%
viability, T/C (second compound 0.003 µM, first compound 0.00316 µM): 115%
viability, T/C (second compound 0.003 µM, first compound 0.01 µM): 93.2%
viability, T/C (second compound 0.003 µM, first compound 0.0316 µM): 99.8%
viability, T/C (second compound 0.003 µM, first compound 0.1 µM): 84.8%
viability, T/C (second compound 0.003 µM, first compound 0.316 µM): 95.4%
viability, T/C (second compound 0.003 µM, first compound 1 µM): 86.7%
viability, T/C (second compound 0.00949 µM, first compound 0.00316 µM): 103%
viability, T/C (second compound 0.00949 µM, first compound 0.01 µM): 87%
viability, T/C (second compound 0.00949 µM, first compound 0.0316 µM): 79.5%
viability, T/C (second compound 0.00949 µM, first compound 0.1 µM): 76%
viability, T/C (second compound 0.00949 µM, first compound 0.316 µM): 93.1%
viability, T/C (second compound 0.00949 µM, first compound 1 µM): 83.9%
viability, T/C (second compound 0.03 µM, first compound 0.00316 µM): 98.6%
viability, T/C (second compound 0.03 µM, first compound 0.01 µM): 110%
viability, T/C (second compound 0.03 µM, first compound 0.0316 µM): 97.5%
viability, T/C (second compound 0.03 µM, first compound 0.1 µM): 92.7%
viability, T/C (second compound 0.03 µM, first compound 0.316 µM): 78%
viability, T/C (second compound 0.03 µM, first compound 1 µM): 99.8%
viability, T/C (second compound 0.0949 µM, first compound 0.00316 µM): 86.6%
viability, T/C (second compound 0.0949 µM, first compound 0.01 µM): 93.5%
viability, T/C (second compound 0.0949 µM, first compound 0.0316 µM): 92.6%
viability, T/C (second compound 0.0949 µM, first compound 0.1 µM): 86.9%
viability, T/C (second compound 0.0949 µM, first compound 0.316 µM): 87%
viability, T/C (second compound 0.0949 µM, first compound 1 µM): 90.5%
viability, T/C (second compound 0.3 µM, first compound 0.00316 µM): 85.7%
viability, T/C (second compound 0.3 µM, first compound 0.01 µM): 87.3%
viability, T/C (second compound 0.3 µM, first compound 0.0316 µM): 89.2%
viability, T/C (second compound 0.3 µM, first compound 0.1 µM): 75.7%
viability, T/C (second compound 0.3 µM, first compound 0.316 µM): 95.1%
viability, T/C (second compound 0.3 µM, first compound 1 µM): 81.7%

CC1(C)CCC(Nc2ncc(C(F)(F)F)c(-c3c[nH]c4c(P(C)(C)=O)c(C#N)ccc34)n2)CN1 (stereo unspecified) + CCn1c(-c2cccnc2C(C)OC)c2c3cc(ccc31)N1CCOC(CC(NC(=O)C(C(C)C)N(C)C(=O)C3(F)CCN(C(=O)C#CC(C)(C)N(C)C)CC3)C(=O)N3CCCC(N3)C(=O)OCC(C)(C)C2)C1
IC50 (second compound 0.000949 µM): > 300 nM
IC50 (second compound 0.003 µM): > 300 nM
IC50 (second compound 0.00949 µM): > 300 nM
IC50 (second compound 0.03 µM): > 300 nM
IC50 (second compound 0.0949 µM): > 300 nM
IC50 (second compound 0.3 µM): > 300 nM
viability, T/C [1]: 114%
viability, T/C [2]: 100%
viability, T/C [3]: 77.1%
viability, T/C [4]: 97.6%
viability, T/C [5]: 94%
viability, T/C [6]: 70.7%
viability, T/C [7]: 111%
viability, T/C [8]: 86%
viability, T/C [9]: 82.8%
viability, T/C [10]: 88.2%
viability, T/C [11]: 95.4%
viability, T/C [12]: 73.6%
viability, T/C [13]: 109%
viability, T/C [14]: 86.5%
viability, T/C [15]: 92.3%
viability, T/C [16]: 90.7%
viability, T/C [17]: 90.5%
viability, T/C [18]: 82.9%
viability, T/C [19]: 95.4%
viability, T/C [20]: 103%
viability, T/C [21]: 96%
viability, T/C [22]: 91.1%
viability, T/C [23]: 70.4%
viability, T/C [24]: 93.4%
viability, T/C [25]: 88.2%
viability, T/C [26]: 93.4%
viability, T/C [27]: 90.3%
viability, T/C [28]: 84.8%
viability, T/C [29]: 64.8%
viability, T/C [30]: 79.2%
viability, T/C [31]: 91%
viability, T/C [32]: 83.9%
viability, T/C [33]: 75.2%
viability, T/C [34]: 63.8%
viability, T/C [35]: 71.8%
viability, T/C [36]: 79.8%

CCc1c2c(nc3ccc(O)cc13)-c1cc3c(c(=O)n1C2)COC(=O)[C@]3(O)CC + CCn1c(-c2cccnc2C(C)OC)c2c3cc(ccc31)N1CCOC(CC(NC(=O)C(C(C)C)N(C)C(=O)C3(F)CCN(C(=O)C#CC(C)(C)N(C)C)CC3)C(=O)N3CCCC(N3)C(=O)OCC(C)(C)C2)C1
IC50 (second compound 0.000949 µM): 18.1 nM
IC50 (second compound 0.003 µM): 16.9 nM
IC50 (second compound 0.00949 µM): 20.3 nM
IC50 (second compound 0.03 µM): 20 nM
IC50 (second compound 0.0949 µM): 18.8 nM
IC50 (second compound 0.3 µM): 11 nM
viability, T/C [1]: 101%
viability, T/C [2]: 92.3%
viability, T/C [3]: 59.5%
viability, T/C [4]: 39.7%
viability, T/C [5]: 25.5%
viability, T/C [6]: 11.6%
viability, T/C [7]: 106%
viability, T/C [8]: 79.5%
viability, T/C [9]: 63.7%
viability, T/C [10]: 37.4%
viability, T/C [11]: 24.7%
viability, T/C [12]: 10.6%
viability, T/C [13]: 105%
viability, T/C [14]: 76.1%
viability, T/C [15]: 68.5%
viability, T/C [16]: 45%
viability, T/C [17]: 20.7%
viability, T/C [18]: 11.8%
viability, T/C [19]: 100%
viability, T/C [20]: 79.5%
viability, T/C [21]: 73.9%
viability, T/C [22]: 38.3%
viability, T/C [23]: 17.6%
viability, T/C [24]: 11.6%
viability, T/C [25]: 84.5%
viability, T/C [26]: 77.8%
viability, T/C [27]: 68%
viability, T/C [28]: 38.5%
viability, T/C [29]: 14.4%
viability, T/C [30]: 10.3%
viability, T/C [31]: 84.4%
viability, T/C [32]: 70.1%
viability, T/C [33]: 56.5%
viability, T/C [34]: 25.4%
viability, T/C [35]: 12.4%
viability, T/C [36]: 7.96%
